Numbers after ± are expanded uncertainties.
Assay: refractive index (Na D-line) (dimensionless); xn = mol fraction of the nth substance listed
Details: 101 kPa, Liquid

CCn1cc[n+](C)c1.O=S(=O)([O-])C(F)(F)F [1-ethyl-3-methylimidazolium trifluoromethanesulfonate] + CCCO
refractive index
Details | 288.15 K | 298.15 K | 308.15 K | 318.15 K | 328.15 K | 338.15 K
x1 = 0.05007 | 1.39381 ± 0.0012 | 1.38991 ± 0.0012 | 1.38613 ± 0.0012 | 1.38243 ± 0.0012 | 1.37892 ± 0.0012 | 1.37545 ± 0.0012
x1 = 0.1013 | 1.39933 ± 0.0013 | 1.39557 ± 0.0013 | 1.39221 ± 0.0013 | 1.38877 ± 0.0013 | 1.38613 ± 0.0013 | 1.38306 ± 0.0013
x1 = 0.1503 | 1.40371 ± 0.0013 | 1.4001 ± 0.0013 | 1.3968 ± 0.0013 | 1.3938 ± 0.0013 | 1.39112 ± 0.0013 | 1.38856 ± 0.0013
x1 = 0.2001 | 1.40743 ± 0.0013 | 1.404 ± 0.0013 | 1.4009 ± 0.0013 | 1.39795 ± 0.0013 | 1.39522 ± 0.0013 | 1.39266 ± 0.0013
x1 = 0.2497 | 1.41088 ± 0.0013 | 1.40747 ± 0.0013 | 1.40434 ± 0.0013 | 1.40127 ± 0.0013 | 1.39872 ± 0.0013 | 1.39631 ± 0.0013
x1 = 0.3008 | 1.41391 ± 0.0013 | 1.41061 ± 0.0013 | 1.40747 ± 0.0013 | 1.40445 ± 0.0013 | 1.40173 ± 0.0013 | 1.39926 ± 0.0013
x1 = 0.3996 | 1.41854 ± 0.0013 | 1.41537 ± 0.0013 | 1.41218 ± 0.0013 | 1.40923 ± 0.0013 | 1.40634 ± 0.0013 | 1.40392 ± 0.0013
x1 = 0.4965 | 1.42297 ± 0.0013 | 1.41986 ± 0.0013 | 1.41681 ± 0.0013 | 1.41376 ± 0.0013 | 1.41082 ± 0.0013 | 1.4078 ± 0.0013
x1 = 0.602 | 1.42671 ± 0.0013 | 1.42372 ± 0.0013 | 1.42062 ± 0.0013 | 1.41752 ± 0.0013 | 1.41447 ± 0.0013 | 1.41163 ± 0.0013
x1 = 0.7043 | 1.42943 ± 0.0013 | 1.42647 ± 0.0013 | 1.42347 ± 0.0013 | 1.42076 ± 0.0013 | 1.41793 ± 0.0013 | 1.41508 ± 0.0013
x1 = 0.7945 | 1.43174 ± 0.0013 | 1.42886 ± 0.0013 | 1.42604 ± 0.0013 | 1.42323 ± 0.0013 | 1.4204 ± 0.0013 | 1.41758 ± 0.0013
x1 = 0.8421 | 1.4325 ± 0.0013 | 1.42963 ± 0.0013 | 1.4268 ± 0.0013 | 1.42398 ± 0.0013 | 1.42115 ± 0.0013 | 1.41838 ± 0.0013
x1 = 0.8988 | 1.43378 ± 0.0013 | 1.43096 ± 0.0013 | 1.42815 ± 0.0013 | 1.42533 ± 0.0013 | 1.42258 ± 0.0013 | 1.41984 ± 0.0013
x1 = 1 | 1.43599 ± 0.0013 | 1.43322 ± 0.0013 | 1.4304 ± 0.0013 | 1.42767 ± 0.0013 | 1.42494 ± 0.0013 | 1.42222 ± 0.0013

CCn1cc[n+](C)c1.O=S(=O)([O-])C(F)(F)F [1-ethyl-3-methylimidazolium trifluoromethanesulfonate] + CC(C)O
refractive index
Details | 288.15 K | 298.15 K | 308.15 K | 318.15 K | 328.15 K | 338.15 K
x1 = 0.04997 | 1.38697 ± 0.0012 | 1.38304 ± 0.0012 | 1.37919 ± 0.0012 | 1.3753 ± 0.0012 | 1.37148 ± 0.0012 | 1.36735 ± 0.0012
x1 = 0.09937 | 1.39302 ± 0.0012 | 1.38935 ± 0.0012 | 1.38578 ± 0.0012 | 1.38236 ± 0.0012 | 1.37896 ± 0.0012 | 1.37487 ± 0.0012
x1 = 0.1504 | 1.39853 ± 0.0012 | 1.39494 ± 0.0012 | 1.39186 ± 0.0012 | 1.38861 ± 0.0012 | 1.38506 ± 0.0012 | 1.38103 ± 0.0012
x1 = 0.1995 | 1.40326 ± 0.0012 | 1.39957 ± 0.0012 | 1.39662 ± 0.0012 | 1.39356 ± 0.0012 | 1.39032 ± 0.0012 | 1.38662 ± 0.0012
x1 = 0.2508 | 1.40739 ± 0.0013 | 1.40382 ± 0.0013 | 1.40089 ± 0.0013 | 1.39817 ± 0.0013 | 1.39474 ± 0.0013 | 1.3916 ± 0.0013
x1 = 0.2997 | 1.411 ± 0.0013 | 1.4074 ± 0.0013 | 1.40439 ± 0.0013 | 1.40147 ± 0.0013 | 1.3983 ± 0.0013 | 1.39544 ± 0.0013
x1 = 0.3988 | 1.41689 ± 0.0013 | 1.41365 ± 0.0013 | 1.41071 ± 0.0013 | 1.40758 ± 0.0013 | 1.40457 ± 0.0013 | 1.40189 ± 0.0013
x1 = 0.5014 | 1.42209 ± 0.0013 | 1.41872 ± 0.0013 | 1.41564 ± 0.0013 | 1.41261 ± 0.0013 | 1.40972 ± 0.0013 | 1.4068 ± 0.0013
x1 = 0.6012 | 1.42562 ± 0.0013 | 1.42259 ± 0.0013 | 1.41956 ± 0.0013 | 1.41667 ± 0.0013 | 1.41379 ± 0.0013 | 1.41098 ± 0.0013
x1 = 0.6972 | 1.42868 ± 0.0013 | 1.42574 ± 0.0013 | 1.42285 ± 0.0013 | 1.41998 ± 0.0013 | 1.41714 ± 0.0013 | 1.41431 ± 0.0013
x1 = 0.7978 | 1.43159 ± 0.0013 | 1.42861 ± 0.0013 | 1.42579 ± 0.0013 | 1.42298 ± 0.0013 | 1.42017 ± 0.0013 | 1.41738 ± 0.0013
x1 = 0.8342 | 1.43251 ± 0.0013 | 1.42965 ± 0.0013 | 1.42678 ± 0.0013 | 1.42395 ± 0.0013 | 1.42115 ± 0.0013 | 1.41837 ± 0.0013
x1 = 0.8905 | 1.43379 ± 0.0013 | 1.43098 ± 0.0013 | 1.42818 ± 0.0013 | 1.42541 ± 0.0013 | 1.42264 ± 0.0013 | 1.41986 ± 0.0013
x1 = 1 | 1.43599 ± 0.0013 | 1.43322 ± 0.0013 | 1.4304 ± 0.0013 | 1.42767 ± 0.0013 | 1.42494 ± 0.0013 | 1.42222 ± 0.0013
